Test results reported in patent US10800807B2, “TGR5 modulators and methods of use thereof” (Intercept Pharmaceuticals, Inc., priority 2015, dated 2020).
Changes are numbered by the printed parent chain. Where two headings read alike, the source gives them in different places.

Tests used:
mTGR5 = molecular target: T1, mTGR5 (Mus musculus, UniProt Q80SS6); test: TGR5 activity: cAMP in mTGR5 CHO-Pi10 clone 4 cells; assay type: cell-based; settings: for Emax: 0.5 h, read-out: (mTGR5 CHO) Efficacy
T1 construct: expressed in transfected cells; host or cells: CHO-Pi10 clone 4
T1 sequence (Q80SS6 1-329): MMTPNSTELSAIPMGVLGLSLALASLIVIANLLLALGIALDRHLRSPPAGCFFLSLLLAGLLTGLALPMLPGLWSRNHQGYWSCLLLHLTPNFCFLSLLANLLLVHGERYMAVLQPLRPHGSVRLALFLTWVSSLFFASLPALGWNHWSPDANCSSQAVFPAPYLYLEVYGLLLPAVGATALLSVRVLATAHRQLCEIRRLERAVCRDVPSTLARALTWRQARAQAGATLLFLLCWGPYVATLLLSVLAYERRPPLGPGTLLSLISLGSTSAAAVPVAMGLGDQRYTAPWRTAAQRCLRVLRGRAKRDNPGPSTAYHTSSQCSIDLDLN

[1] = molecular target: T2, mouse glutathione transferase-tagged FXR-LBD (Mus musculus, UniProt Q60641); test: FXR AlphaScreen coactivator recruitment assay (mouse); assay type: biochemical; settings: for EC50: read-out: (mFXR) EC50; for Emax: read-out: (mFXR) Efficacy
T2 construct: mouse glutathione transferase-tagged FXR-LBD (generated in-house); made in house
T2 sequence (Q60641 264-488 limits assumed): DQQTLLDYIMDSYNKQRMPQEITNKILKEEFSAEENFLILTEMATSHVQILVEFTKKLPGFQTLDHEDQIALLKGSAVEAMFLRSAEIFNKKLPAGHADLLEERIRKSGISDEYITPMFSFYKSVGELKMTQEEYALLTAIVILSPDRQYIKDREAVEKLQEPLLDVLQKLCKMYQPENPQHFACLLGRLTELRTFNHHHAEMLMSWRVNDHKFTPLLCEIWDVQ
Method: (§1) Activation of the FXR receptor was determined using a recruitment coactivator assay, namely AlphaScreen technology. The assays were performed using human glutathione transferase-tagged FXR-LBD (Life Technologies, USA) and mouse glutathione transferase-tagged FXR-LBD (generated in-house). Briefly, assays were conducted in white, low-volume, 384-well OptiPlate using a final volume of 25 μL containing 10 nM glutathione transferase-tagged FXR-LBD protein and 30 nM biotinylated Src-1 peptide. The stimulation was carried out with different BA concentrations for 30 minutes at 25° C. […] Dose-response curves were performed in triplicate and Z′ factor was used to validate the robustness of the assay.

[2] = molecular target: T3, human glutathione transferase-tagged FXR-LBD (Homo sapiens, UniProt Q96RI1); test: FXR AlphaScreen coactivator recruitment assay (human); assay type: biochemical; parameters: Emax: dose or concentration left out as unconfirmed; settings: for EC50: human FXR-LBD, AlphaScreen, read-out: hFXR EC50; for Emax: read-out: hFXR Efficacy;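 for hFXR Efficacy: CDCA at 50 µM taken as 100%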
T3 construct: human glutathione transferase-tagged FXR-LBD (Life Technologies, USA); purchased Life Technologies, USA
T3 sequence (Q96RI1 262-486 limits assumed): T2 sequence (Q60641 264-488 limits assumed) with D7H, Y8F, S46N, I50V, A95S, A98S, K107N, V125I, M174I, Y175H
Method: as §1

TGR5 [3] = molecular target: T4, TGR5 (Homo sapiens, UniProt Q8TDU6); test: TGR5 activity: intracellular cAMP levels, NCI-H716 cells (HTR-FRET); assay type: cell-based; parameters: endogenous in cells; host or cells: NCI-H716; settings: for Emax: read-out: TGR5 (NCI-H716) Efficacy; for EC50: cAMP
T4 sequence (Q8TDU6 1-330): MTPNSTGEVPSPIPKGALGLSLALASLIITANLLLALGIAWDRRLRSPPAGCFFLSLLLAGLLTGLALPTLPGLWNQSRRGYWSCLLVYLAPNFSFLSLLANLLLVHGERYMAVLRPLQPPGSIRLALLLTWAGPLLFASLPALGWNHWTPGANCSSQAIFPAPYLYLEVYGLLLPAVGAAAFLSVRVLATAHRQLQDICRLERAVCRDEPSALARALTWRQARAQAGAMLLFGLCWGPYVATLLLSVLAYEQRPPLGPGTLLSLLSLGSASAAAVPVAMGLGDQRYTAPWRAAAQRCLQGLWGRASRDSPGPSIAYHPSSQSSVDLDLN
Method: Activation of TGR5 was assessed by measuring the level of cAMP using an HTR-FRET assay. Thus, NCI-H716 cells were cultured on 96-well plates coated with Matrigel (Corning, USA) (0.75 mg/ml) in DMEM supplemented with 10% FCS, 100 units/ml penicillin, and 100 μg/ml streptomycin sulphate. […] The level of intracellular cAMP was determined with Lance kit. Z′ factor was used to validate assays.

TGR5 [4] = molecular target: T4, TGR5; test: TGR5 activity: cAMP in hTGR5 CHO-k1 cells; assay type: cell-based; parameters: expressed in transfected cells; host or cells: CHO-k1; settings: for Emax: 0.5 h, read-out: hTGR5 CHO Efficacy; for EC50: cAMP
[5] = mTGR5 CHO cells, value in parentheses
[6] = mouse FXR-LBD, value in parentheses
[7] = 1 h, NCI-H716 cells, Ref. LCA 100% at 10 μM
[8] = hTGR5 CHO cells, Ref. LCA 100% at 10 μM

Structure (SMILES)	Emax (mTGR5; [5]) [%]	EC50 (mTGR5; [5]) [nM]	EC50 [1, 6] [nM]	Emax [1, 6] [%]	EC50 [2] [nM]	Emax [2] [%]	Emax (TGR5 [3]; [7]) [%]	EC50 (TGR5 [3]; NCI-H716 cells) [nM]	Emax (TGR5 [4]; [8]) [%]	EC50 (TGR5 [4]; hTGR5 CHO cells) [nM]	Emax (mTGR5; CHO) [%]	Emax (TGR5 [4]; CHO) [%]	Emax [1] [%]	Emax (TGR5 [3]; NCI-H716, 1 h) [%]
CC[C@H]1[C@@H](O)[C@@H]2[C@H](C[C@H](O)[C@]3(C)[C@@H]([C@H](C)C[C@H](O)C(=O)O)CC[C@@H]23)[C@@]2(C)CC[C@@H](O)C[C@@H]12 [Compound 1, 3α,7α,12α,23(S)-tetrahydroxy-6α-ethyl-5β-cholan-24-oic acid]	115	700	146000	9	32000 ± 8000	52	40	19000	103 ± 1	3500 ± 1500	–	–	–	–
CC[C@H]1[C@@H](O)[C@@H]2[C@H](C[C@H](O)[C@]3(C)[C@@H]([C@H](C)C[C@@H](O)C(=O)O)CC[C@@H]23)[C@@]2(C)CC[C@@H](O)C[C@@H]12 [Compound 2, 3α,7α,12α,23(R)-tetrahydroxy-6α-ethyl-5β-cholan-24-oic acid]	93.5	1500	84000	61	20000 ± 9000	200	55	12000	47.5 ± 2.5	17000 ± 2000	–	–	–	–
CC[C@H]1[C@@H](O)C2C3CC[C@H]([C@H](C)C[C@H](CO)C(=O)O)[C@@]3(C)[C@@H](O)CC2[C@@]2(C)CC[C@@H](O)C[C@@H]12 (stereo partly drawn) [Compound 5, 3α,7α,12α-Trihydroxy-6α-ethyl-23(B)-hydroxymethyl-5β-cholan-24-oic acid]	–	3400	–	–	20000	37	–	–	–	21000	84.6	43.6	–	–
CC[C@H]1[C@@H](O)[C@@H]2[C@H](C[C@H](O)[C@]3(C)[C@@H]([C@H](C)C[C@@H](CF)C(=O)O)CC[C@@H]23)[C@@]2(C)CC[C@@H](O)C[C@@H]12 [Compound 6, 3α,7α,12α-Trihydroxy-6α-ethyl-23(A)-fluoromethyl-fluoromethyl-5β-cholan-24-oic acid]	–	3800	–	–	> 100000	–	–	–	–	29500	81	28	–	–
CC[C@H]1[C@@H](O)[C@@H]2[C@H](C[C@H](O)[C@]3(C)[C@@H]([C@H](C)C[C@H](CF)C(=O)O)CC[C@@H]23)[C@@]2(C)CC[C@@H](O)C[C@@H]12 [Compound 7, 3α,7α,12α-Trihydroxy-6α-ethyl-23(A)-fluoromethyl-fluoromethyl-5β-cholan-24-oic acid]	119	2000	–	–	13000	83	–	–	27	7900	–	–	–	–
CC[C@@H]1C2C[C@H](O)CC[C@]2(C)C2CC[C@@]3(C)C(CC[C@@H]3[C@H](C)Cc3nn[nH]n3)C2[C@@H]1O (stereo partly drawn) [Compound 13]	90	2300	1400	208	430	138	84 ± 14	6400 ± 1100	102 ± 3	1000 ± 100	–	–	–	–
CC[C@H]1[C@@H](O)C2C3CC[C@H]([C@H](C)CCc4noc(=O)[nH]4)[C@@]3(C)CCC2[C@@]2(C)CC[C@@H](O)C[C@@H]12 (stereo partly drawn) [Compound 16, 3α,7α-Dihydroxy-6α-ethyl-24-nor-5β-23([1,2,4]-oxadiazole-3-one-5-yl)-cholane]	99	440	6600	204	150 ± 50	165 ± 19	116 ± 9	3000 ± 300	99 ± 4	1200 ± 100	–	–	–	–
CC[C@H]1[C@@H](O)[C@@H]2[C@H](CC[C@]3(C)[C@@H]([C@H](C)CCc4nc(=O)o[nH]4)[C@@H](O)C[C@@H]23)[C@@]2(C)CC[C@@H](O)C[C@@H]12 [Compound 18]	101	370	2300	150	550 ± 30	132 ± 8	115 ± 4	1800 ± 200	104 ± 1	110 ± 30	–	–	–	–
CC[C@H]1[C@@H](O)C2C3CC[C@H]([C@H](C)CC(=O)NO)[C@@]3(C)CCC2[C@@]2(C)CC[C@@H](O)C[C@@H]12 (stereo partly drawn) [Compound 20]	101	500	16000	85	8700 ± 40	122 ± 3	148 ± 1	700 ± 100	109 ± 5	300 ± 140	–	–	–	–
CC[C@H]1[C@@H](O)C2C3CC[C@H]([C@H](C)CCc4nnc(NS(C)(=O)=O)o4)[C@@]3(C)CCC2[C@@]2(C)CC[C@@H](O)C[C@@H]12 (stereo partly drawn) [Compound 23, 2-(3α,7α-Dihydroxy-6α-ethyl-5β-cholan-24-nor-23-cholanyl)-5-methylsulfonamido-1,3,4-oxadiazole]	–	1400	330	–	100 ± 20	175 ± 22	–	12500 ± 1500	–	1300 ± 100	110	111 ± 2	342	75 ± 1
